Laboratory results as given in patent publication US9120994B2, “Terpene alcohols for use in fragrance compositions and perfumed products” (Givaudan S.A., priority 2011, dated 2015).

Test: GC-odor threshold concentration (gas chromatograph with sniff port, panel of trained evaluators)
Conditions: for Odor threshold concentration (relative): GC sniff port, panel of trained evaluators, identical conditions, relative values (Ic = 1)
Procedure: Definition: The odour threshold concentration is defined as the lowest concentration of the vapour of an odourant material in the air which can be detected by smell and can be measured by standard methods known in the art. According to standard procedures known to the person skilled in the art, threshold concentrations for volatile perfumery compounds are determined on a gas chromatograph equipped with a sniff port by a panel of trained evaluators. The lowest concentration smelled by each panelist is recorded as the individual threshold concentration expressed in ng (absolute amount of compound delivered at the sniff port).

Structure (SMILES)	Odor threshold concentration (relative)	odor threshold concentration, times lower than compound Ib (compared with [(1S*,2R*)-1-methyl-2-[(S*)-5-methylhex-4-en-2-yl]cyclopropyl]methanol (Ib))	odor threshold concentration, times lower than citronellol (compared with citronellol)	odor threshold concentration, times lower than geraniol (compared with geraniol)
CC(C)=CC[C@H](C)[C@H]1C[C@]1(C)CO (relative stereo) [Compound Ib, [(1S*,2R*)-1-Methyl-2-[(S*)-5-methylhex-4-en-2-yl]cyclopropyl]methanol]	100			
CC(C)=CC[C@@H](C)[C@H]1C[C@]1(C)CO (relative stereo) [Compound Ic, [(1S*,2R*)-1-Methyl-2-[(R*)-5-methylhex-4-en-2-yl]cyclopropyl]methanol]	1	100 times		
CC(C)=CCCC(C)CCO (stereo not shown) [Citronellol, 3,7-dimethyloct-6-enol, reference compound]	185			
CC(C)=CCC(C)/C=C(\C)CO (stereo not shown) [Compound Ia, 2,4,7-Trimethylocta-2,6-dien-1-ol]	70		more than 2 times	more than 11 times
